# Reference: US9896482B2, “Beta hairpin peptides having antiviral properties against Dengue virus” (CENTRO DE INGENIERÍA GENÉTICA Y BIOTECNOLOGÍA, priority 2014, dated 2018)
# Marks after values point to notes of the source that are not given here. Where a SMILES comes first, the peptide text is derived from it. Bridges are numbered along the chain shown (N, C = ends). [ ]: non-standard residue; d: D form.
# What was measured:
# sLRP1-CIV = biological target: T1, sLRP1-CIV (Homo sapiens, UniProt Q07954); experiment: Biacore (SPR) binding to immobilized sLRP1-CIV; conditions: peptides at 20 μM
# T1 construct: purchased R&D Systems, USA
# Protocol: The interaction of the beta hairpin peptides with soluble fragments of the LRP1 receptor was studied by Surface Plasmon Resonance (SPR), using a Biacore X unit. In this technique, one of the interaction partners to be studied is immobilized on the surface of a chip, and the other interaction partner is dissolved in a solution that runs through the measurement cell on top of the interaction surface, under conditions of controlled flow. The association and dissociation of interacting partners is measured in resonance units (RU) and plotted, as a function of time, on charts known as ‘sensorgrams’. SPR, therefore, enables the experimenter to obtain detailed information about the interaction without having to label either interaction partner.
# In this example, one channel of a CM5 chip (GE Healthcare, USA) was used to immobilize protein sLRP1-CIV on its surface at high density (see Table 6) and recombinant Human Serum Albumin (rHSA, Sigma-Aldrich, USA) was immobilized on the other channel.
# Although it was decided to immobilize sLRP1-CIV at high density because these conditions make easier the detection of any potential interactions with compounds whose molecular weight is lower than that of average proteins (such as the peptides this experiment is intended to study), it must be stressed that in high-density surfaces, mass transfer limitations and the possibility of multivalent binding make difficult the accurate determination of kinetic constants. Therefore, and in order to characterize in greater detail the sLRP1-CIV binding surface, different RAP dilutions (0.6-20 μM) were loaded, and RU were registered under conditions of interaction equilibria (250 sec, see FIG. 13B). […] The data also indicate that immobilized sLRP1-CIV faithfully reproduces the previously reported characteristics of the LRP1-RAP interaction.
# The binding of beta hairpin peptides to sLRP1-CIV was studied by loading 20 μM dilutions in running buffer of the different peptide variants onto the sLRP1-CIV chip characterized above. The high strength of the resulting signals is consistent with the binding of aggregated, rather than monomeric forms of the peptides. Therefore, the observed variations between different peptides may reflect either differences in the affinity of unitary peptide interactions or differences in aggregation numbers and/or geometries that lead to variations in the number of peptide units able to simultaneously engage immobilized sLRP1-CIV molecules in a multivalent manner. […] The difference between peptides HDIII3CL2 and HDIII3CL is that the former has an additional C-terminal lysine and has, therefore, a stronger cationic character, which may facilitate additional electrostatic interactions with the negatively charged LRP1 receptor.
# [1] = Light scattering aggregation kinetics; type: physicochemical
# Protocol: Light scattering was used to monitor the aggregation of peptide PHB4. The measurements were performed on a Shimadzu™ RF-5301PC (Shimadzu, Japan) spectrofluorimeter, acquiring data with the software provided by the instrument manufacturer. The wavelengths of the incident light beam (excitation) and the detector (emission) were set to 320 nm, using excitation and emission apertures of 5 nm. The scattering of light due to the peptide was calculated by subtracting, from the intensity of the light dispersed by the peptide, the intensity of the light dispersed by a solution without peptide (blank). Variations on light scattering due to the dissolution of the peptide in PBS were studied by acquiring data in time course mode, with a measurement frequency of 1 or 2 per second. The solutions of PHB4 in PBS were prepared by mixing one part of a solution of the peptide in water with one part of a PBS 2X solution.
# DENV4 = experiment: In vivo protection assay, intracranial challenge, DENV4; set-up: species or system Balb/c mice; conditions: 30 μg peptide inoculated intracranially with 10 median lethal doses, 21 days
# Protocol: (§1) An experiment was set up to evaluate the in vivo antiviral activity of peptide PHB4 and compare it to that of peptide HDIII3CL. For this purpose, groups of 12 adult Balb/c mice (20 g average body weight) were anesthetized by ether inhalation and inoculated intracranially with 20 μL of viral preparations containing 10 times the median lethal dose of this model and the peptide to be evaluated. The animals recovered quickly and already appeared alert five minutes after the treatment, and were monitored afterwards for 21 days. The data were evaluated using the Kaplan-Meier logarithmic rank test.
# [2] = system: DENV1 (NIBSC code West Pac 74); experiment: Plaque reduction assay in Vero cells, DENV1; type: cell-based, Dengue virus; conditions: m.o.i. 0.001, read-out: Antiviral activity IC50 vs DENV1
# Protocol: The cells were grown in 24 well plates until the monolayer reached approximately 90% confluence, after which they were washed twice with MEM medium without Fetal Bovine Serum (FBS). Then, peptide dilutions were added and the cell-peptide mixtures were incubated typically for 1 hour at 37° C., followed by the addition of a DENV serotype 2 preparation (NIBSC code S16803) at a multiplicity of infection (m.o.i.) of 0.001. The cells were then incubated for 1 hour at 37° C., and once the period of incubation with the viral inoculum concluded, were washed again to remove unbound virions and incubated for 5 days at 37° C. in high density medium (MEM supplemented with non-essential amino acids, 1% FBS, 1% carboxymethylcellulose) in order to let viral plaques form. Afterwards, the cells were stained with 0.1% Naphtol Blue Black in 0.15 M sodium acetate. Two replicates per experimental point were used in each assay, and three independent determinations were performed for each sample.
# Next, it was decided to compare the antiviral activity of peptides PHB4 and HDIII3CL against all four DENV serotypes, with the objective of comparing their respective IC50 values. […]
# [3] = Transmission electron microscopy of aggregate morphology; type: physicochemical
# Protocol: In order to analyze the morphology of the aggregates formed by peptide PHB4, peptide solutions were subjected to different experimental treatments where conditions such as temperature, incubation time and the presence of electrolytes were manipulated to facilitate aggregation (FIG. 10). For this particular study, two peptide solutions (2 mg/mL, 0.73 mM) were prepared, one in water and another in PBS. A sample was then taken from each, directly fixed on the grids and observed under the microscope (T0 samples). The remainder was incubated for 1 hour at 50° C. and then samples were taken and fixed immediately (T1 samples). The remainder was then incubated for an additional 2 hours at room temperature, and then fixed (T2 samples).
# DENV3 = experiment: In vivo protection assay, intracranial challenge, DENV3; set-up: species or system Balb/c mice; conditions: 30 μg peptide, morbidity evaluated instead of lethality
# Protocol: as §1
compound,measurement,setting,value
CC[C@H](C)[C@@H]1NC(=O)[C@H](Cc2ccccc2)NC(=O)[C@H](Cc2c[nH]c3ccccc23)NC(=O)[C@H](CC(N)=O)NC(=O)[C@H](C(C)C)NC(=O)[C@H](CCCCN)NC(=O)[C@H](Cc2c[nH]c3ccccc23)NC(=O)[C@H](CCCCN)NC(=O)[C@H]2CCCN2C(=O)[C@H](CCCNC(=N)N)NC(=O)[C@H]([C@@H](C)O)NC(=O)[C@H](Cc2c[nH]c3ccccc23)NC(=O)[C@H](Cc2ccc(O)cc2)NC(=O)[C@H](C(C)C)NC(=O)[C@H](CCC(=O)O)NC(=O)[C@H]([C@@H](C)CC)NC(=O)[C@@H](N)CSSC[C@@H](C(=O)N[C@@H](CCCCN)C(=O)N[C@@H](CCCCN)C(=O)N[C@@H](CCCCN)C(N)=O)NC1=O [PHB4] (H-CIEVYWTR[dP]KWKVNWFICKKK-NH2; disulfide 1-18; N-terminus assumed),"Binding to sLRP1-CIV by SPR, in words",sLRP1-CIV,strongest binding
same,Maximum of ratio of dispersed light relative to time zero,[1]; 5 μM peptide in PBS,11
same,Maximum of ratio of dispersed light relative to time zero,[1]; 10 μM peptide in PBS,7
same,Latency period before increase of dispersed light,[1]; dissolved into PBS,< 2 min
same,Protection (%) DENV4,DENV4,100*** %
same,IC50,[2],2 nM
same,Size of protofibril/fibril-type filamentous structures,"[3]; 2 mg/mL in water, after 50° C. treatment",5-10 nm
same,Diameter of particulates,"[3]; 2 mg/mL in water, room temperature",5-20 nm
same,Size of filamentous structures,"[3]; 2 mg/mL, immediately after dissolving in PBS",5-20 nm
same,Protection (%) DENV3,DENV3,100*** %
